Source: article PMC5754413, “Mass balance, metabolic disposition, and pharmacokinetics of a single oral dose of regorafenib in healthy human subjects” (Cancer Chemotherapy and Pharmacology, 2017)

Assays:
[1] = Metabolite profiling in plasma by HPLC–LSC; type: in vivo, human
Description: Blood and plasma: Blood samples (18.7 mL per each time point) were collected into nonbeaded lithium-heparinized tubes immediately pre-dose and at the following post-dose times: 0.5, 1, 1.5, 2, 2.5, 3, 4, 6, 9, 12, 16, 20, 24, 36, 48, 72, 96, 120, 144, 192, 240, and 288 h. For each sample, 1 mL of whole blood was stored at 4 °C for subsequent LSC and the remainder was processed for plasma. Individual 150 μL plasma samples for each time point were treated with formic acid (20 μL) and acetonitrile (450 μL). The samples were homogenized using a MS2 Minishaker® (IKA® Labortechnik, Staufen im Breisgau, Germany). The precipitated proteins were removed by centrifugation (5 min, 13,000 rpm, Biofuge). After concentrating the supernatant to about 80 μL, methanol (15 μL) was added. The individual samples were analyzed by HPLC with off-line radioactivity detection for metabolite profiling.
Pharmacokinetic outcome measures were generated by non-compartmental analysis of plasma concentration–time data using WinNonlin v4.1 (Pharsight Corporation) in conjunction with Kincalc v2.50 (Bayer AG). For individual subjects, primary outcome measures were maximum observed concentration (C max) and area under the concentration–time curve from time zero to infinity (AUC). […] The metabolite or regorafenib percentages were calculated by AUC(0–144)metabolite or regorafenib divided by AUC(0–144)radioactivity calculated from data obtained by HPLC–LSC analysis. Secondary outcomes were: time to C max (t max); apparent terminal elimination half-life (t ½); apparent volume of distribution during the terminal phase after extravascular administration (Vz/F); and total body clearance of drug calculated after extravascular administration (e.g., apparent oral clearance) (CL/F). AUC was estimated by the sum of partial areas: partial areas were calculated using the linear (if C i ≤ C i+1) or the logarithmic (if C i > C i+1) trapezoidal rules. The quality of the half-life calculation was assessed based on graphs showing the concentration–time profile. For reliable calculation of the half-life, at least three data points (concentration/time values) were used. The extrapolated portion of the AUC from the last measured data point C(t n) to infinity was calculated using the concentration C last,calc, which was calculated from the log-linear regression line used for half-life calculation rather than C(t n). In addition, appropriate pharmacokinetic parameters were derived from the total radioactivity-versus-time data in blood and plasma.
(§1) Due to the limited amount of radiocarbon associated with many of the samples, analyses were conducted using HPLC with fraction collection followed by off-line LSC. Samples were analyzed on a 150 × 3 mm Prodigy® ODS-3 100A, 3 µm column (Phenomenex, Aschaffenburg, Germany) protected by 8 × 3 mm Nucleosil® 100-3 C18 HD guard columns (Macherey–Nagel, Düren, Germany). Metabolites were separated with a gradient of aqueous potassium dihydrogen phosphate (1 g/L, pH 2.0, mobile phase A) versus acetonitrile (mobile phase B) at a flow rate of 0.5 mL/min (gradient: 0% B at 0 min, linear to 50% B at 10 min, linear to 60% B at 25 min, linear to 80% B at 26 min, plateau at 80% B to 30 min). The radiochemical profile of [^14C]regorafenib-derived radioactivity was determined for all urine samples, plasma extracts, and fecal homogenate extracts. Here, HPLC fractionation into 96-well plates was followed by off-line LSC (Wallac 1450 MicroBeta liquid scintillation analyzer) after adding 150 μL of scintillation cocktail to each well (Ultima-Flo™ AP, PerkinElmer; sampling rate: 10 s/well) using the Wallac 1450 Microbeta™ Plusliquid detector. Reconstructed radiochemical profiles were compiled from the resulting data.

[2] = Mass balance: urinary and fecal excretion of radioactivity and metabolite pattern in excreta; type: in vivo, human
Description: Urine: Urine samples were collected at 12-h intervals post-dose on Day 1 and then at 24-h intervals until 288 h post-dose. Urine was stored at 4 °C until it was divided into aliquots for LSC and subsequent metabolite profiling (aliquots were stored at − 20 °C).
Feces: Fecal samples were collected and homogenized in water on a daily basis until 12 days post-dose. Duplicate aliquots of the homogenates were taken for combustion with oxygen (in preparation for LSC), and separate aliquots were used for metabolite profiling.
Liquid samples: Duplicate aliquots of liquid samples were diluted with 1 mL distilled water, if necessary, and mixed with 10 mL Aquasafe 500 Plus scintillation fluid. Levels of radioactivity were measured by LSC (PerkinElmer 2100) with automatic quench correction by an external standard channel ratio method at 13 °C using Ultima Gold™ as the liquid scintillation cocktail. Lower limits of detection (LLOD) were 30 μg-Eq/L for plasma (sample volume 0.5 mL), 50 μg-Eq/L for whole blood (sample volume 0.3 mL), and 0.016 μg-Eq/g for urine (sample weight 1 g).
Fecal samples: Duplicate aliquots of fecal homogenate (about 0.3 g) were weighed into Combustocones® containing Combustopads® for combustion analysis. Samples were combusted using a Packard Tri-Carb 307 Automatic Sample Oxidizer. The resultant ^14CO2 generated was collected by absorption in Carbo-Sorb (8 mL) to which Permafluor E+ (10 mL) was added. Radioactivity was quantified using a liquid scintillation analyzer (PerkinElmer 2100), with automatic quench correction using an external standard method as urine sample analysis. Samples were allowed to stabilize with respect to heat and light, and each sample was analyzed for 5 min. Prior to calculation of individual results, a background count rate was determined and subtracted from each sample’s count rate. LOD was 0.05 μg-Eq/g (sample weight 0.3 g).
as §1

[3] = Safety assessments in healthy male subjects; type: in vivo, human; conditions: single 120 mg dose, four subjects
Description: Blood pressure, pulse rate, electrocardiogram, physical examination, urine drug screening, and adverse events were evaluated throughout the study. The investigator obtained and recorded all the observed or reported adverse events, the severity (mild, moderate, or severe) of the events, and the relationship to study drug (in the investigator’s opinion).

[4] = design: method as in PMID 24896071; conditions: co-administration of ketoconazole with a single 160 mg dose of regorafenib; cited from earlier work
UGT1A9 = system: UGT1A9; design: method as in PMID 24896071, PMID 27734608; conditions: in vitro data; cited from earlier work
[5] = range between subjects, percent of administered dose

Percent of total AUC(0–144) of radioactivity in plasma ([1]; based on HPLC–LSC, mean): 57.4% | Mean total exposure, AUC(0–144 h) ([1]; plasma, HPLC–LSC): 46.89 mg-Eq·h/L | Dose renally excreted after 96 h ([2]; in vivo): less than 3% | Cumulative renal excretion by 96 h ([2]; mean, percent of dose): 16.6% | Excretion in feces within 8 days ([2]; mean, total radioactivity): 67.7% | Excretion in feces within the first 4 days ([2]; mean, total radioactivity): 46.3% | Radioactivity eliminated in feces, range [2, 5]: 68.3–76.3% | Radioactivity excreted via urine, range [2, 5]: 16.2–24.7%
SMILES: CNC(=O)c1cc(Oc2ccc(NC(=O)Nc3ccc(Cl)c(C(F)(F)F)c3)c(F)c2)ccn1 [Regorafenib, 4-[4-({[4-chloro-3-(trifluoromethyl)phenyl]carbamoyl}amino)-3-fluorophenoxy]-N-methylpyridine-2-carboxamide]
Electrocardiograms, laboratory investigations, and vital signs [3]: no clinically relevant changes | Treatment-emergent adverse events ([3]; event considered unrelated to study drug): mild, non-serious headache | Increase in mean AUC [4]: 30–40% | Increase in mean C max [4]: 30–40% | Enzyme catalyzing conjugation with glucuronic acid (UGT1A9): by UGT1A9
